Results from patent publication US20060167106A1, “Compounds acting at the centrosome” (priority 2004, published 2006).
“Also recorded” adds a separate entry of the source.

Columns and labels:
[1] = test system: bovine brain microtubule-associated protein (MAP)-rich tubulin; assay: MAP-Rich Tubulin Polymerization Assay; assay type: biochemical; settings: 0.5 μM Compound 1 alone or with 3 μM Taxol
Method: In vitro tubulin polymerization assays were repeated in the presence of microtubule-associated proteins (MAPs). Lyophilized bovine brain microtubule-associated protein (MAP)-rich tubulin and PEM buffer (80 mM Na-PIPES (pH 6.9), 1 mM MgCl2, 1 mM EGTA) were purchased from Cytoskeleton (Denver, Colo.). […] Absorbance at 340 nm was measured every minute for 60 minutes at 37° C. using a Perkin Elmer HTS 7000 spectrophotometer.

[2] = test system: U937 (histiocytic lymphoma); assay: Viability and cell growth of U937 cells; assay type: cell-based; settings: for Total cells (×10^6): U937, 36 hour treatment
Method: (§1) The viability and cell growth of two lymphoma cell lines, CRL-2261 (non-Hodgkin's lymphoma) and U937 (histiocytic lymphoma), were assayed following treatment with Compound 1 for 36-48 hours. Viability of the cells was determined using a kit from Molecular Probes (Eugene, Oreg.) that labels live cells green (calcein AM) and dead cells red (ethidium homodimer) according to manufacturer's instructions. Fluorescence of calcein and ethidium homodimer in cells was imaged using standard filters for FITC and Texas Red, respectively, with the Nikon TE300 microscope/digital imaging system.

[3] = test system: CRL-2261 (non-Hodgkin's lymphoma); assay: Viability and cell growth of CRL-2261 cells; assay type: cell-based; settings: for Total cells (×10^6): CRL-2261, 36 hour treatment; for Total cells (×10^7): CRL-2261, 48 hour treatment
Method: as §1

[4] = test system: CV-1 cells; assay: Actin (phalloidin) fluorescence in CV-1 cells; assay type: cell-based, monkey; settings: 0.5 μM, 6 hours
Method: CV-1 cells were obtained from ATCC and grown in chamber slides (Labtek, Campbell, Calif.) for 24 hours in 90% Eagle's MEM with 10% BCS before treatment. […] Cells were then washed in PBS and fixed in 3.7% formaldehyde solution in PBS for 10 minutes at room temperature. Cells were washed again twice in PBS for 5 minutes before incubation with AlexaFluoR488 conjugated phalloidin (1:40 dilution; Molecular Probes, Eugene, Oreg.) and 1% bovine serum albumin (BSA) in PBS at 37° C. for 30 minutes.

[5] = molecular target: T1, Aurora-A kinase (Homo sapiens, UniProt O14965); assay: Aurora-A Kinase Assay (ELISA, Lats2 phosphorylation); assay type: biochemical; settings: 50 nM to 50 μM
T1 construct: purchased MBL International (CycLex)
T1 sequence (O14965 1-403): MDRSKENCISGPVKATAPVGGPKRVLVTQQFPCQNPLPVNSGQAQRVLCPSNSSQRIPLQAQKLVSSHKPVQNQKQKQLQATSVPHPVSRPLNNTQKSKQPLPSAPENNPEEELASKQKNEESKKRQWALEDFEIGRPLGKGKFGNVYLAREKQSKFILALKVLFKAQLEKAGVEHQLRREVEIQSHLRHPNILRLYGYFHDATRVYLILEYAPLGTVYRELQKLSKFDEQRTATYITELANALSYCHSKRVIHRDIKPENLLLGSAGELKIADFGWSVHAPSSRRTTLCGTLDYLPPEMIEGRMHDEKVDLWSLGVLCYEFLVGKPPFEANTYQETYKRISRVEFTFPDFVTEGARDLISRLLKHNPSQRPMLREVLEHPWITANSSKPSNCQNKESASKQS
Method: In the assay, the amount of phosphorylated substrate is measured by binding to ST-3B11, an anti-phospho-Lats2 serine83 monoclonal antibody, subsequently incubating with horseradish peroxidase-conjugated anti-mouse IgG, which then catalyzes the conversion of the chromogenic substrate tetra-methylbenzidine (TMB) from a colorless solution to a blue solution. The color is then quantified by spectrophotometry, which reflects the relative amount of Aurora-A activity in the sample.
The assay was then performed according to the manufacturer's instructions using 40 Units/well of recombinant Aurora A enzyme. In the ‘enzyme control’ Aurora A enzyme and the ‘ATP minus control’, ATP was omitted from the reaction mixture. […] The color was quantified using a spectrophotometer (Perkin Elmer HTS 7000 Bio Assay Reader) at 450/535 nm wavelengths.

[6] = test system: MCF-7 cells; assay: α-tubulin-YFP localization in MCF-7 cells; assay type: cell-based; settings: 40 hours after treatment with 500 nM for 25 hours
Excerpt: MDA-435, MCF-7, CV-1, HT-29 and MCF-10A cell lines were maintained with 10% FBS-containing DMEM media. […] Living cells were examined using a fluorescent microscope for α-tubulin-YFP expression. Cells in single colonies that had microtubules labeled with tubulin-YFP were lifted and expanded using G418-containing media.

[7] = test system: CHO cells; assay: Oregon Green 488-Taxol localization in CHO cells; assay type: cell-based, Chinese hamster; settings: 0.5 μM Compound 1
Method: A fluorescent compound, Oregon Green 488-Taxol (Molecular Probes/Invitrogen), was utilized to determine the distribution of Taxol in CHO cells (FIG. 33). In addition, the targeting of fluorescent Taxol to centrosomes was examined in Compound 1-treated cells (FIG. 34). Non-transfected wild-type CHO cells and HeLa cells were cultured in 2-well chambered cover-slips for 24-48 hours before treatment. Oregon Green 488-Taxol stock solution was made with DMSO. […] Oregon Green 488-Taxol fluorescence in living cells or fixed cells was imaged using a standard filter for FITC with the Nikon TE300 microscope/digital imaging system.

[8] = test system: MDA-435 breast cancer cells; assay: Multi-ubiquitin Western blotting in MDA-435 cells; assay type: cell-based; settings: for increase of ubiquitinated proteins of the cell lysates: 500 nM
Method: Louis, Mo.) immediately before use, on ice for 1 hour. After scraping, the lysates were cleared by centrifugation at 13,000 RPM for 10 minutes at 4° C. Protein content was determined using a Bradford assay and bovine serum albumin as a standard (Bio-Rad Laboratories, Hercules, Calif.). Samples were solubilized by boiling in SDS sample buffer and subjected to SDS-PAGE. The proteins were subsequently transferred to a PVDF membrane (Bio-Rad, Hercules, Calif.). […] The alkaline phosphatase-conjugated secondary antibodies (Invitrogen, Carlsbad, Calif.) were diluted in blocking buffer and incubated with the blot for 1 hour at room temperature. The secondary antibodies were detected by the Western Breeze Chemiluminescent Kit (Invitrogen, Carlsbad, Calif.) and imaged using a Kodak 440 Image Station. Proteins targeted for degradation by the ubiquitin-dependent proteolytic pathway are tagged with multi-ubiquitin molecules. […] In this assay, accumulation of multi-ubiquitinated proteins in the cells is indicative of the impairment of proteasome activity.

CN(NC(=O)CC(=O)NN(C)C(=S)c1ccccc1)C(=S)c1ccccc1 [Compound 1]
influence on MAP-enriched tubulin polymerization [1]: does not influence MAP-enriched tubulin polymerization | cell death of U937 cells ([2]; 36 hours): less affected | Total cells (×10^6) ([2]; 500 nM): 2.13 ×10^6 | Total cells (×10^6) ([2]; 5000 nM): 2.40 ×10^6 | cell death / growth inhibition of CRL-2261 cells ([3]; 36-48 hours): significant cell death of CRL-2261 cells; also recorded: more significantly inhibited than growth of U937 cells | Total cells (×10^6) ([3]; 500 nM): 0.69 ×10^6 | Total cells (×10^6) ([3]; 5000 nM): 0.75 ×10^6 | Total cells (×10^7) ([3]; 0.5 nM): 1.32 ×10^7 | Total cells (×10^7) ([3]; 5 nM): 1.11 ×10^7 | Total cells (×10^7) ([3]; 50 nM): 0.26 ×10^7 | Total cells (×10^7) ([3]; 500 nM): 0.14 ×10^7 | Total cells (×10^7) ([3]; 5000 nM): 0.16 ×10^7 | organization of the actin network [4]: dramatic alterations in the cells' actin cytoskeletal networks; also recorded: induced the disappearance of cytosolic actin bundles | inhibition of the phosphorylation of Lats2 by Aurora-A kinase [5]: did not inhibit the phosphorylation of Lats2 by Aurora-A kinase | accumulation of α-tubulin-YFP at centrosome-like structures [6]: accumulation of α-tubulin-YFP at centrosome-like structures | effect on the accumulation of Taxol (Oregon Green 488-Taxol) at centrosomes [7]: no effect on the accumulation of Taxol at centrosomes | accumulation of ubiquitinated proteins / level of proteasome inhibition compared with Velcade ([8]; 0.5 μM Compound 1 versus Velcade 500 nM (and 5 nM), Western blot): significantly less accumulation of ubiquitinated proteins in cultured cells than Velcade; also recorded: below that of the positive control | increase of ubiquitinated proteins of the cell lysates ([8]; 6 hours of treatment in cell culture): 210.03 | increase of ubiquitinated proteins of the cell lysates ([8]; 24 hours of treatment in cell culture): 243.11 | accumulation of multi-ubiquitinated proteins ([8]; MDA-435 cells, 0.5 μM, 6 and 24 hours): induced the accumulation of multi-ubiquitinated proteins
